Experiments:
[1] = biological target: T1, proTNFα convertase enzyme (TACE) (Homo sapiens, UniProt P78536); assay: partially purified isolated enzyme assay for proTNFα convertase (TACE) inhibition; type: biochemical; conditions: 10 μM of compound; enzyme from membranes of THP-1
T1 construct: a partially purified, isolated enzyme assay, the enzyme being obtained from the membranes of THP-1; endogenous in cells; host or cells: THP-1 cell membranes (partially purified)
Procedure: Recombinant human proMMP13 may be expressed and purified as described by Knauper et al. [V. Knauper et al., (1996) […] 271:1544-1550 (1996)]. […] Activity is determined by measuring the fluorescence at λex 328 nm and λem 393 nm. Percent inhibition is calculated as follows: % Inhibition is equal to the [Fluorescenceplus inhibitor−Fluorescencebackground] divided by the [Fluorescenceminus inhibitor−Fluorescencebackground].
The ability of the compounds to inhibit proTNFα convertase enzyme (TACE) may be assessed using a partially purified, isolated enzyme assay, the enzyme being obtained from the membranes of THP-1 as described by K. M. Mohler et al., (1994) Nature 370:218-220. The purified enzyme activity and inhibition thereof is determined by incubating the partially purified enzyme in the presence or absence of test compounds using the substrate 4′,5′-Dimethoxy-fluoresceinyl Ser.Pro.Leu.Ala.Gln.Ala.Val.Arg.Ser.Ser.Ser.Arg.Cys(4-(3-succinimid-1-yl)-fluorescein)-NH2 in assay buffer (50 mM Tris HCl, pH 7.4 containing 0.1% (w/v) Triton X-100 and 2 mM CaCl2), at 26° C. for 4 hours. The amount of inhibition is determined as for MMP13 except λex 485 nm and λem 538 nm were used. […]

T1 sequence (P78536 215-824): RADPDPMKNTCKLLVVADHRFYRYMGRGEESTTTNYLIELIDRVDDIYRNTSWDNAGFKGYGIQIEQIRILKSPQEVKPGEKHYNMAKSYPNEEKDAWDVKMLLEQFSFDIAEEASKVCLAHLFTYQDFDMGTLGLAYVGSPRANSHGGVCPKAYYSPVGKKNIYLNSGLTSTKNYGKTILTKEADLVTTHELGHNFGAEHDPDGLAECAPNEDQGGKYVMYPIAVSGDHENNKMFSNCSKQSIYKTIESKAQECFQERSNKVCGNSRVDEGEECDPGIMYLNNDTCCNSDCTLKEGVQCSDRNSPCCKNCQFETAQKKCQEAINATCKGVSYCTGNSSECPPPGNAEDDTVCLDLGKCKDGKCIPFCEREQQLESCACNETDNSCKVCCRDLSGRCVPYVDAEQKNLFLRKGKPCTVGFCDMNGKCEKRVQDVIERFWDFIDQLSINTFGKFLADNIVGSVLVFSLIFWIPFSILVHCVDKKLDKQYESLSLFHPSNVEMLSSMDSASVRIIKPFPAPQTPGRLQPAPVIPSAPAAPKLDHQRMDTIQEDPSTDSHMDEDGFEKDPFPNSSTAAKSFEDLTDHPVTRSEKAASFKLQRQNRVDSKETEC

| melting point [°C] | inhibition at 10 µM [1] [%] | SMILES |
| --- | --- | --- |
| 184.7 |  | Cc1cc(COC2CCN(S(=O)(=O)CC(C)C(=O)NO)CC2)c2ccccc2n1 (racemic) [Example 12, (R/S)-2-Methyl-3-({4-[(2-methylquinolin-4-yl)methoxy]piperidin-1-yl}sulphonyl)propionic hydroxamic acid] |
|  | 97 | O=CN(O)C(CS(=O)(=O)N1CCC(OCc2cccc(F)c2)CC1)c1ccccc1 (racemic) [compound 25, (R/S)-2-({4-[(3-fluorobenzyl)oxy]piperidin-1-yl}sulphonyl)-1-phenylethyl(hydroxy)formamide] |
|  | 99 | Cc1ccc(COC2CCN(S(=O)(=O)CC(c3cccnc3)N(O)C=O)CC2)cc1C (racemic) [compound 42, (R/S)-2-({4-[(3,4-dimethylbenzyl)oxy]piperidin-1-yl}sulphonyl)-1-pyridin-3-ylethyl(hydroxy)formamide] |

Source: US20060142336A1, “N-sulfonylpiperidines as metalloproteinase inhibitors (tace)” (priority 2002, published 2006)
